# Laboratory results reported in PubChem BioAssay AID220 (DTP/NCI, 2004).
# Values joined by “and” are separate entries in the source; they are usually repeats but may differ in a detail not shown here. Equal entries are not always repeated. Results filed as inconclusive are left out.
# Test system: CD8F1 mice, subcutaneous mammary adenocarcinoma, T/C%
# Test: NCI In Vivo Anticancer Drug Screen. Data for tumor model Mammary Adenocarcinoma CD8F1 (subcutaneous) in CD8F1
# Settings: higher = larger tumour
# How it was run: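 Compound-treated versus vehicle-treated mice with transplantable tumors; survival or tumor size compared as T/C.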
# [1] = endpoint: median tumor weight (est.), dose: 6.25 mg/kg/injection, schedule: Q07DX005 (ip), vehicle: saline with Tween-80
# [2] = endpoint: median tumor weight (est.), dose: 25.0 mg/kg/injection, schedule: Q07DX005 (ip), vehicle: saline with Tween-80
# [3] = endpoint: median tumor weight (est.), dose: 50.0 mg/kg/injection, schedule: Q07DX005 (ip), vehicle: saline with Tween-80
# [4] = endpoint: median tumor weight change, dose: 125.0 mg/kg/injection, schedule: Q01DX001 (ip), vehicle: saline with Tween-80
# [5] = endpoint: median tumor weight change, dose: 250.0 mg/kg/injection, schedule: Q01DX001 (ip), vehicle: saline with Tween-80
# [6] = endpoint: median tumor weight change, dose: 500.0 mg/kg/injection, schedule: Q01DX001 (ip), vehicle: saline with Tween-80
# [7] = endpoint: median tumor weight change, dose: 1000.0 mg/kg/injection, schedule: Q01DX001 (ip), vehicle: saline with Tween-80
# [8] = endpoint: median tumor weight (est.), dose: 1.5 mg/kg/injection, schedule: Q07DX005 (ip), vehicle: saline
# [9] = endpoint: median tumor weight (est.), dose: 3.0 mg/kg/injection, schedule: Q07DX005 (ip), vehicle: saline
# [10] = endpoint: median tumor weight (est.), dose: 0.5 mg/kg/injection, schedule: Q07DX005 (ip), vehicle: Klucel (hydroxypropylcellulose) (HPC)
structure (smiles),measurement,setting,value
CS(=O)(=O)OCCN(CCOS(C)(=O)=O)c1ccc(C=O)cc1,T/C,[1],62 % of control
same,T/C,"endpoint: median tumor weight (est.), dose: 12.5 mg/kg/injection, schedule: Q07DX005 (ip), vehicle: saline with Tween-80",62 % of control and 83 % of control
same,T/C,[2],35 % of control
same,T/C,"endpoint: median tumor weight (est.), dose: 200.0 mg/kg/injection, schedule: Q07DX005 (ip), vehicle: saline with Tween-80",85 % of control
COC1C(O)CC(OC2CC(Oc3cc4cc5c(c(O)c4c(O)c3C)C(=O)[C@@H](OC3CC(OC4CC(OC6CC(C)(O)C(OC(C)=O)C(C)O6)C(O)C(C)O4)C(O)C(C)O3)[C@H]([C@H](OC)C(=O)[C@@H](O)[C@@H](C)O)C5)OC(C)C2OC(C)=O)OC1C (stereo partly specified),T/C,"endpoint: median tumor weight (est.), dose: 0.04 mg/kg/injection, schedule: Q07DX005 (ip), vehicle: saline",46 % of control
same,T/C,"endpoint: median tumor weight (est.), dose: 0.09 mg/kg/injection, schedule: Q07DX005 (ip), vehicle: saline",93 % of control
same,T/C,"endpoint: median tumor weight (est.), dose: 0.36 mg/kg/injection, schedule: Q07DX005 (ip), vehicle: saline",70 % of control
same,T/C,"endpoint: median tumor weight (est.), dose: 0.72 mg/kg/injection, schedule: Q07DX005 (ip), vehicle: saline",76 % of control and 92 % of control
same,T/C,"endpoint: median tumor weight change, dose: 0.25 mg/kg/injection, schedule: Q01DX001 (ip), vehicle: saline",63 % of control
same,T/C,"endpoint: median tumor weight change, dose: 0.5 mg/kg/injection, schedule: Q01DX001 (ip), vehicle: saline",42 % of control
same,T/C,"endpoint: median tumor weight change, dose: 1.0 mg/kg/injection, schedule: Q01DX001 (ip), vehicle: saline",44 % of control
C[C@]12CC[C@@H]3c4ccc(OC(=O)Cc5ccc(N(CCCl)CCCl)cc5)cc4CC[C@H]3[C@@H]1CC[C@@H]2OC(=O)Cc1ccc(N(CCCl)CCCl)cc1,T/C,"endpoint: mean tumor weight, dose: 25.0 mg/kg/injection, schedule: Q07DX005 (ip), vehicle: saline with Tween-80",54 % of control
same,T/C,"endpoint: mean tumor weight, dose: 50.0 mg/kg/injection, schedule: Q07DX005 (ip), vehicle: saline with Tween-80",47 % of control
same,T/C,"endpoint: mean tumor weight, dose: 100.0 mg/kg/injection, schedule: Q07DX005 (ip), vehicle: saline with Tween-80",45 % of control
same,T/C,"endpoint: mean tumor weight, dose: 200.0 mg/kg/injection, schedule: Q07DX005 (ip), vehicle: saline with Tween-80",38 % of control
same,T/C,"endpoint: mean tumor weight, dose: 400.0 mg/kg/injection, schedule: Q07DX005 (ip), vehicle: saline with Tween-80",65 % of control
same,T/C,[2],79 % of control and 93 % of control
same,T/C,[3],45 % of control and 51 % of control
same,T/C,"endpoint: median tumor weight (est.), dose: 400.0 mg/kg/injection, schedule: Q07DX005 (ip), vehicle: saline with Tween-80",10 % of control
O=C(O)C1Cc2nc[nH]c2CN1CO (stereo unspecified),T/C,[4],118 % of control
same,T/C,[5],94 % of control
same,T/C,[6],93 % of control
same,T/C,[7],77 % of control
same,T/C,"endpoint: median tumor weight change, dose: 2000.0 mg/kg/injection, schedule: Q01DX001 (ip), vehicle: saline with Tween-80",81 % of control
Nc1ncn(C2CC(O)C(CO)O2)c(=O)n1 (stereo unspecified),T/C,"endpoint: median tumor weight (est.), dose: 0.37 mg/kg/injection, schedule: Q07DX005 (ip), vehicle: saline",37 % of control
same,T/C,"endpoint: median tumor weight (est.), dose: 0.75 mg/kg/injection, schedule: Q07DX005 (ip), vehicle: saline",25 % of control
same,T/C,[8],9 % of control
same,T/C,[9],10 % of control
Nc1ncnc2c1ccn2C1OC(CO)C(O)C1O (stereo unspecified),T/C,"endpoint: mean tumor weight, dose: 0.25 mg/kg/injection, schedule: Q01DX009 (ip), vehicle: saline",162 % of control
same,T/C,"endpoint: mean tumor weight, dose: 0.5 mg/kg/injection, schedule: Q01DX009 (ip), vehicle: saline",98 % of control
same,T/C,"endpoint: mean tumor weight, dose: 1.0 mg/kg/injection, schedule: Q01DX009 (ip), vehicle: saline",114 % of control
same,T/C,"endpoint: mean tumor weight, dose: 1.0 mg/kg/injection, schedule: Q07DX005 (ip), vehicle: saline",117 % of control
same,T/C,"endpoint: mean tumor weight, dose: 4.0 mg/kg/injection, schedule: Q07DX005 (ip), vehicle: saline",361 % of control
same,T/C,[10],195 % of control
same,T/C,"endpoint: median tumor weight (est.), dose: 8.0 mg/kg/injection, schedule: Q07DX005 (ip), vehicle: Klucel (hydroxypropylcellulose) (HPC)",114 % of control
O=C1C=C2C(=CCOC2O)O1 (stereo unspecified),T/C,[10],36 % of control
same,T/C,"endpoint: median tumor weight (est.), dose: 1.0 mg/kg/injection, schedule: Q07DX005 (ip), vehicle: Klucel (hydroxypropylcellulose) (HPC)",25 % of control
same,T/C,[8],153 % of control
same,T/C,"endpoint: median tumor weight (est.), dose: 2.0 mg/kg/injection, schedule: Q07DX005 (ip), vehicle: Klucel (hydroxypropylcellulose) (HPC)",25 % of control
same,T/C,[9],87 % of control
same,T/C,"endpoint: median tumor weight (est.), dose: 4.0 mg/kg/injection, schedule: Q07DX005 (ip), vehicle: Klucel (hydroxypropylcellulose) (HPC)",50 % of control
same,T/C,"endpoint: median tumor weight change, dose: 5.0 mg/kg/injection, schedule: Q01DX001 (ip), vehicle: Klucel (hydroxypropylcellulose) (HPC)",98 % of control
O=S1(=O)C=C(c2ccccc2)C(c2ccccc2)=C1,T/C,[1],80 % of control
same,T/C,[2],72 % of control
same,T/C,[3],108 % of control
Nc1nc2c(C(=O)N3CCCC3)nnn2c2ccccc12,T/C,"endpoint: median tumor weight change, dose: 62.5 mg/kg/injection, schedule: Q01DX001 (ip), vehicle: saline with Tween-80",77 % of control
same,T/C,[4],87 % of control
O=C1C=C(C2OC(CO)C(O)C2O)C(=O)N1 (stereo unspecified),T/C,"endpoint: median tumor weight (est.), dose: 1.56 mg/kg/injection, schedule: Q07DX005 (ip), vehicle: saline",73 % of control
same,T/C,"endpoint: median tumor weight (est.), dose: 6.25 mg/kg/injection, schedule: Q07DX005 (ip), vehicle: saline",114 % of control
[Cl][Pt+2][Cl].[NH-]C1CCC1.[NH2-],T/C,"endpoint: median tumor weight change, dose: 6.25 mg/kg/injection, schedule: Q01DX001 (ip), vehicle: suspension in saline",96 % of control
same,T/C,"endpoint: median tumor weight change, dose: 12.5 mg/kg/injection, schedule: Q01DX001 (ip), vehicle: suspension in saline",99 % of control
C[C@]12C=CC(=O)C=C1CC[C@@H]1[C@@H]2C(=O)C[C@@]2(C)[C@H]1CC[C@]2(O)C(=O)CO,T/C,"endpoint: mean tumor weight, dose: 25.0 mg/kg/injection, schedule: Q01DX009 (ip), vehicle: saline",173 % of control
same,T/C,"endpoint: mean tumor weight, dose: 37.5 mg/kg/injection, schedule: Q07DX006 (ip), vehicle: saline",37 % of control
same,T/C,"endpoint: mean tumor weight, dose: 75.0 mg/kg/injection, schedule: Q07DX005 (ip), vehicle: saline",93 % of control
same,T/C,"endpoint: mean tumor weight, dose: 75.0 mg/kg/injection, schedule: Q07DX006 (ip), vehicle: saline",42 % of control
same,T/C,"endpoint: mean tumor weight, dose: 75.0 mg/kg/injection, schedule: Q07DX007 (ip), vehicle: saline",10 % of control
same,T/C,"endpoint: mean tumor weight, dose: 100.0 mg/kg/injection, schedule: Q01DX009 (ip), vehicle: saline",61 % of control
same,T/C,"endpoint: mean tumor weight, dose: 150.0 mg/kg/injection, schedule: Q07DX005 (ip), vehicle: saline",95 % of control
same,T/C,"endpoint: mean tumor weight, dose: 150.0 mg/kg/injection, schedule: Q07DX006 (ip), vehicle: saline",23 % of control
same,T/C,"endpoint: mean tumor weight, dose: 200.0 mg/kg/injection, schedule: Q07DX005 (ip), vehicle: saline",9 % of control
same,T/C,"endpoint: mean tumor weight, dose: 300.0 mg/kg/injection, schedule: Q07DX006 (ip), vehicle: saline",6 % of control
same,T/C,"endpoint: mean tumor weight, dose: 400.0 mg/kg/injection, schedule: Q07DX005 (ip), vehicle: saline",21 % of control
same,T/C,"endpoint: mean tumor weight, dose: 800.0 mg/kg/injection, schedule: Q07DX005 (ip), vehicle: saline",1 % of control
same,T/C,"endpoint: median tumor weight (est.), dose: 100.0 mg/kg/injection, schedule: Q07DX005 (ip), vehicle: Klucel (hydroxypropylcellulose) (HPC)",33 % of control
same,T/C,"endpoint: median tumor weight (est.), dose: 200.0 mg/kg/injection, schedule: Q07DX005 (ip), vehicle: Klucel (hydroxypropylcellulose) (HPC)",26 % of control
same,T/C,"endpoint: median tumor weight (est.), dose: 400.0 mg/kg/injection, schedule: Q07DX005 (ip), vehicle: Klucel (hydroxypropylcellulose) (HPC)",15 % of control
same,T/C,"endpoint: median tumor weight (est.), dose: 800.0 mg/kg/injection, schedule: Q07DX005 (ip), vehicle: Klucel (hydroxypropylcellulose) (HPC)",13 % of control
NC(=S)c1ncn(C2OC(CO)C(O)C2O)c1N (stereo unspecified),T/C,"endpoint: median tumor weight (est.), dose: 12.5 mg/kg/injection, schedule: Q07DX005 (ip), vehicle: saline",31 % of control
same,T/C,"endpoint: median tumor weight (est.), dose: 25.0 mg/kg/injection, schedule: Q07DX005 (ip), vehicle: saline",48 % of control
same,T/C,"endpoint: median tumor weight (est.), dose: 25.0 mg/kg/injection, schedule: Q07DX005 (ip), vehicle: suspension in saline",192 % of control
same,T/C,"endpoint: median tumor weight (est.), dose: 50.0 mg/kg/injection, schedule: Q07DX005 (ip), vehicle: saline",39 % of control
same,T/C,"endpoint: median tumor weight (est.), dose: 50.0 mg/kg/injection, schedule: Q07DX005 (ip), vehicle: suspension in saline",49 % of control
same,T/C,"endpoint: median tumor weight (est.), dose: 100.0 mg/kg/injection, schedule: Q07DX005 (ip), vehicle: saline",31 % of control
same,T/C,"endpoint: median tumor weight (est.), dose: 100.0 mg/kg/injection, schedule: Q07DX005 (ip), vehicle: suspension in saline",45 % of control
same,T/C,"endpoint: median tumor weight (est.), dose: 200.0 mg/kg/injection, schedule: Q07DX005 (ip), vehicle: saline",12 % of control
same,T/C,"endpoint: median tumor weight (est.), dose: 200.0 mg/kg/injection, schedule: Q07DX005 (ip), vehicle: suspension in saline",95 % of control
same,T/C,"endpoint: median tumor weight (est.), dose: 400.0 mg/kg/injection, schedule: Q07DX005 (ip), vehicle: saline",10 % of control
same,T/C,"endpoint: median tumor weight (est.), dose: 400.0 mg/kg/injection, schedule: Q07DX005 (ip), vehicle: suspension in saline",121 % of control
N=c1c(C(=O)OCc2ccccc2)ncc(CCl)n1O,T/C,[5],78 % of control and 94 % of control
same,T/C,[6],80 % of control and 82 % of control
same,T/C,[7],65 % of control and 81 % of control
